This note sets out measurements from patent US8716475B2, “2-aminopyrimidine modulators of the histamine H4 receptor” (Janssen Pharmaceutica NV, priority 2007, dated 2014).

pKi: −log10 of the molar value. Structures can show the parent of a compound that is named as a salt. Where only a bound is given, the exact number is not on record here.

T1 sequence (Q9H3N8 whole entry): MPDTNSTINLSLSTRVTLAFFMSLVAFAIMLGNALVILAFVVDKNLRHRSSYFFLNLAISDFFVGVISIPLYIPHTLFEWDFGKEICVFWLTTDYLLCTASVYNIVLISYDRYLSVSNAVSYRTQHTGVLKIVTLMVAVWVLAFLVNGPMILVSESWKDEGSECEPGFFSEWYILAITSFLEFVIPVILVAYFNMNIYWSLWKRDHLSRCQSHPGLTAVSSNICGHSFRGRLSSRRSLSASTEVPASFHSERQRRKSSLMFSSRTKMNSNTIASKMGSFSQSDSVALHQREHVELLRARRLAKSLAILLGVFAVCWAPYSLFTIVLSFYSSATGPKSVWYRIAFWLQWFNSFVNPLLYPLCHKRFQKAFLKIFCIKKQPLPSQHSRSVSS

The first experiment addresses T1, human H4 receptor (Homo sapiens, UniProt Q9H3N8).
T1 construct: expressed in transfected cells
The experiment can be described thus: Binding Assay on Recombinant Human Histamine H4 Receptor. The following applies: Table 1; [3H] histamine competition binding, membranes of SK-N-MC cells transfected with human H4 receptor; average of results. The procedure:
Binding Assay on Recombinant Human Histamine H4 Receptor.
Cell pellets from SK-N-MC cells stably or transiently transfected with human H4 receptor were used for the binding assays. Cell pellets were homogenized in 50 mM Tris/5 mM EDTA buffer and supernatants from an 800g spin were collected and recentrifuged at 30,000g for 30 min. Pellets were rehomogenized in 50 mM Tris/5 mM EDTA buffer. […] Compounds were tested in free base, hydrochloride salt, or trifluoroacetic acid form. Nonspecific binding was defined with 100 μM cold histamine. […] Membranes were harvested by rapid filtration using the 96 well Brandel system or a cell harvester using a Whatman GF/C filter or filter plates treated with 0.5% polyethylenimine (PEI), and washed 4 times with ice-cold 50 mM Tris/5 mM EDTA buffer. Filters were then dried, mixed with scintillant and radioactive counts were determined. […] Data marked with an asterisk (*) were obtained by the cell harvester method. Where activity is shown as greater than (>) a particular value, the value is the highest concentration tested.
For `CN1CCN(c2cc(C3CC3)nc(N)n2)CC1` [Example 40, 4-Cyclopropyl-6-(4-methyl-piperazin-1-yl)-pyrimidin-2-ylamine], the pKi is 8.10. Consider `Nc1nc(C2CCCCC2)cc(N2CC3CCNC3C2)n1` (stereo not drawn) [Example 54, 4-Cyclohexyl-6-(cis-hexahydro-pyrrolo[3,4-b]pyrrol-5-yl)-pyrimidin-2-ylamine], for which the pKi is 8.70. On the same count and under the same terms, to `CCc1cc(N2C[C@H]3CCN[C@H]3C2)nc(N)n1` [Example 37, (R,R)-(4-Ethyl-6-hexahydro-pyrrolo[3,4-b]pyrrol-5-yl)-pyrimidin-2-ylamine] belongs 7.57; to `Cc1cc(N2CCN(C)CC2)nc(N)n1` [Example 22, 4-Methyl-6-(4-methyl-piperazin-1-yl)-pyrimidin-2-ylamine], 7.74; to “4-(4-piperazin-1-yl)-5,6,7,8-tetrahydro-quinazolin-2-ylamine [Example 67]”, 7.77.

With `Nc1nc(C2CCC2)cc(N2CCC[C@@H](N)C2)n1` [Example 45, (R)-4-(3-Amino-piperidin-1-yl)-6-cyclobutyl-pyrimidin-2-ylamine], the pKi is 6.99. As for `Cc1nc(N)nc(N2C[C@@H]3C[C@H]2CN3)c1C` [Example 32, (S,S)-4-(2,5-Diaza-bicyclo[2.2.1]hept-2-yl)-5,6-dimethyl-pyrimidin-2-ylamine], the pKi is less than 5.00.

As to `Nc1nc(C2CCC2)cc(N2C[C@H]3CCCN[C@H]3C2)n1` [Example 51, (R,R)-(4-Cyclobutyl-6-cis-octahydro-pyrrolo[3,4-b]pyridin-6-yl)-pyrimidin-2-ylamine], the pKi is 8.52. For `Nc1nc2c(c(N3CC4CCCNC4C3)n1)CCCC2` (stereo not drawn) [Example 71, 4-(cis-Octahydro-pyrrolo[3,4-b]pyridin-6-yl)-5,6,7,8-tetrahydro-quinazolin-2-ylamine], the pKi is 8.30. Same read-out and setting: the result for `CCc1cc(N2CC[C@@H](NC)C2)nc(N)n1` [Example 36, (R)-4-Ethyl-6-(3-methylamino-pyrrolidin-1-yl)-pyrimidin-2-ylamine] reads 7.68; that for `CN[C@@H]1CCN(c2nc(N)nc3c2CCC3)C1` [Example 75, (R)-4-(3-Methylamino-pyrrolidin-1-yl)-6,7-dihydro-5H-cyclopentapyrimidin-2-ylamine], 6.80; that for `Nc1nc2c(c(N3CC[C@@H](N)C3)n1)CCCC2` [Example 68, (R)-4-(3-Amino-pyrrolidin-1-yl)-5,6,7,8-tetrahydro-quinazolin-2-ylamine], 6.94. `CN[C@@H]1CCN(c2cc(C3CC3)nc(N)n2)C1` [Example 41, (R)-(4-Cyclopropyl-6-3-methylamino-pyrrolidin-1-yl)-pyrimidin-2-ylamine]: the pKi was 7.55.

Still in this experiment, the particulars now being: Table 2, data marked with an asterisk (*): obtained by the cell harvester method; [3H] histamine competition binding, SK-N-MC membranes.
For the compound `CC(C)(C)c1cc(N2CC(N)C2)nc(N)n1` [Example 133, 4-(3-Amino-azetidin-1-yl)-6-tert-butyl-pyrimidin-2-ylamine], the pKi was 6.62.

Still in this experiment, the particulars now being: Table 2; [3H] histamine competition binding, membranes of SK-N-MC cells transfected with human H4 receptor; average of results.
Consider `Nc1nc(C2Cc3ccccc3C2)cc(N2CC(N)C2)n1` [Example 161, 4-(3-Amino-azetidin-1-yl)-6-indan-2-yl-pyrimidin-2-ylamine salt], for which the pKi was 7.62. `NCCNc1cc(C2CCOCC2)nc(N)n1` [Example 176, N^4-(2-Amino-ethyl)-6-(tetrahydro-pyran-4-yl)-pyrimidine-2,4-diamine]: the negative-log Ki (pKi) was 6.47.

Consider `NCCCNc1cc(C2CCOC2)nc(N)n1` (stereo not shown) [Example 196, N^4-(3-Amino-propyl)-6-(tetrahydro-furan-3-yl)-pyrimidine-2,4-diamine], for which the negative-log Ki (pKi) is 6.69. On the same count and under the same terms, the result for `CC(C)c1cc(N2CCC3(CCCN3)C2)nc(N)n1` (stereo not shown) [Example 91, 4-(1,7-Diaza-spiro[4.4]non-7-yl)-6-isopropyl-pyrimidin-2-ylamine] reads 7.08; that for `CC1(c2cc(N3CC[C@@H](N)C3)nc(N)n2)CCOCC1` [Example 174, (R)-4-(3-Amino-pyrrolidin-1-yl)-6-(4-methyl-tetrahydro-pyran-4-yl)-pyrimidin-2-ylamine], 6.86. Still for that read-out and setting: the result for `CC(C)c1cc(N2CC3NCCOC3C2)nc(N)n1` (single isomer, unassigned) [Example 94, 4-(trans-Hexahydro-pyrrolo[3,4-b][1,4]oxazin-6-yl)-6-isopropyl-pyrimidin-2-ylamine] reads 6.30; that for `Nc1nc2c(c(N3CC(N)C3)n1)COCC2` [Example 252, 4-(3-Amino-azetidin-1-yl)-7,8-dihydro-5H-pyrano[4,3-d]pyrimidin-2-ylamine], less than 5.00; that for `CC1(c2cc(N3C[C@H]4CNC[C@H]4C3)nc(N)n2)CCOCC1` [Example 170, 4-(cis-Hexahydro-pyrrolo[3,4-c]pyrrol-2-yl)-6-(4-methyl-tetrahydro-pyran-4-yl)-pyrimidin-2-ylamine], 5.23.

As to `CCCCc1cc(N2C[C@H]3CNC[C@H]3C2)nc(N)n1` [Example 140, Butyl-6-(cis-hexahydro-pyrrolo[3,4-c]pyrrol-2-yl)-pyrimidin-2-ylamine], the pKi is 6.40. On the same count and under the same terms, the result for `CN[C@@H]1CCN(c2nc(N)nc3c2COCC3)C1` [Example 99, (R)-4-(3-Methylamino-pyrrolidin-1-yl)-7,8-dihydro-5H-pyrano[4,3-d]pyrimidin-2-ylamine] reads 6.67. Still for that read-out and setting: to `Nc1nc(Cc2ccc(Cl)cc2)cc(N2CC[C@@H](N)C2)n1` [Example 235, (R)-4-(3-Amino-pyrrolidin-1-yl)-6-(4-chloro-benzyl)-pyrimidin-2-ylamine] belongs 6.85; to `COc1c(C2CCCC2)nc(N)nc1N1CCN(C)CC1` [Example 185, 4-Cyclopentyl-5-methoxy-6-(4-methyl-piperazin-1-yl)-pyrimidin-2-ylamine], 6.52.

Regarding `Nc1nc(C2Cc3ccccc3O2)cc(N2CCNCC2)n1` (stereo not shown) [Example 171, 4-(2,3-Dihydro-benzofuran-2-yl)-6-piperazin-1-yl-pyrimidin-2-ylamine], the pKi is 6.97.

For the compound `CN(CCN)c1cc(Cc2ccc(Cl)cc2)nc(N)n1` [Example 238, N^4-(2-Amino-ethyl)-6-(4-chloro-benzyl)-N^4-methyl-pyrimidine-2,4-diamine], the pKi was 5.75.

`CCOCc1cc(N2CCNCC2)nc(N)n1` [Example 240, 4-Ethoxymethyl-6-piperazin-1-yl-pyrimidin-2-ylamine]: the pKi was 7.60. Take `CC(C)Cc1cc(N2CC[C@@H](N)C2)nc(N)n1` [Example 149, (R)-4-(3-Amino-pyrrolidin-1-yl)-6-isobutyl-pyrimidin-2-ylamine]: the pKi was 8.52. On the same count and under the same terms, the result for `COc1c(C2CCCC2)nc(N)nc1N1C[C@H]2CCCN[C@H]2C1` [Example 188, (R,R)-4-Cyclopentyl-5-methoxy-6-(octahydro-pyrrolo[3,4-b]pyridin-6-yl)-pyrimidin-2-ylamine] reads 7.74; that for `CN1CCN(c2nc(N)nc3c2COCC3)CC1` [Example 96, 4-(4-Methyl-piperazin-1-yl)-7,8-dihydro-5H-pyrano[4,3-d]pyrimidin-2-ylamine], 7.46. `CCCCc1cc(N2CC3CCCNC3C2)nc(N)n1` (stereo not drawn) [Example 141, 4-Butyl-6-(cis-octahydro-pyrrolo[3,4-b]pyridin-6-yl)-pyrimidin-2-ylamine]: the pKi is 7.08. On to `CCCCc1cc(N(C)CCN)nc(N)n1` [Example 138, N^4-(2-Amino-ethyl)-6-butyl-N^4-methyl-pyrimidine-2,4-diamine], for which the pKi was 7.36.

Turning to `CN1CCN(c2cc(Cc3cccs3)nc(N)n2)CC1` [Example 213, 4-(4-Methyl-piperazin-1-yl)-6-thiophen-2-ylmethyl-pyrimidin-2-ylamine], the negative-log Ki (pKi) is 8.40. Same read-out and setting: the result for `Nc1nc(C2Cc3ccccc3O2)cc(N2CC(N)C2)n1` (stereo not shown) [Example 172, 4-(3-Amino-azetidin-1-yl)-6-(2,3-dihydro-benzofuran-2-yl)-pyrimidin-2-ylamine] reads 6.03; that for `CC(C)Cc1cc(N2CCN(C)CC2)nc(N)n1` [Example 146, 4-Isobutyl-6-(4-methyl-piperazin-1-yl)-pyrimidin-2-ylamine], 8.52.

With `Nc1nc(CC2CCCO2)cc(N2CC3CCCNC3C2)n1` (stereo not drawn) [Example 231, 4-(cis-Octahydro-pyrrolo[3,4-b]pyridin-6-yl)-6-(tetrahydro-furan-2-ylmethyl)-pyrimidin-2-ylamine], the pKi was 7.23. On the same count and under the same terms, to `CNCCNc1cc(C2CCOC2)nc(N)n1` (stereo not shown) [Example 198, N^4-(2-Methylamino-ethyl)-6-(tetrahydro-furan-3-yl)-pyrimidine-2,4-diamine] belongs 5.61; to `CCCCc1cc(N2CC[C@@H](NC)C2)nc(N)n1` [Example 137, (R)-4-Butyl-6-(3-methylamino-pyrrolidin-1-yl)-pyrimidin-2-ylamine], 8.70; to `Nc1nc(C2CC2)cc(N2C[C@H]3CNC[C@H]3C2)n1` [Example 124, 4-Cyclopropyl-6-(cis-hexahydro-pyrrolo[3,4-c]pyrrol-2-yl)-pyrimidin-2-ylamine], less than 5.00. Take `Nc1nc(C2CCCC2)cc(N2CCC3(CCCN3)C2)n1` (racemic) [Example 84, 4-Cyclopentyl-6-(cis-1,7-diaza-spiro[4.4]non-7-yl)-pyrimidin-2-ylamine]: the pKi is 7.96. On the same count and under the same terms, the result for `CN[C@@H]1CCN(c2cc(Cc3ccc(Cl)cc3)nc(N)n2)C1` [Example 234, (R)-4-(4-Chloro-benzyl)-6-(3-methylamino-pyrrolidin-1-yl)-pyrimidin-2-ylamine] reads 7.74.
